Source: patent US20140275102A1, “Solid State Forms of 6-[4-[3-((R)-2-Methylpyrrolidine-1-yl)-propoxy]phenyl] 2H-pyridazine-3-one Hydrochloride” (Cephalon Inc., priority 2013, published 2014)

Legend:
Format in all cases: physicochemical
[1] = Solid-solid transition on storage at controlled humidity, 25° C. (XRPD)
Experimental: Approximately 100 mg of Form A1 was exposed to 100% RH at 25° C. over 1 day. Analysis by XRPD confirmed quantitative conversion of the material to Form […].

[2] = Solid state stress stability at 40° C./75% RH (XRPD, stability-indicating HPLC); settings: for Area Purity (%): 40° C./75% RH, HPLC
Experimental: Powder X-Ray Diffraction patterns were recorded on a PANalytical X Pert Pro diffractometer equipped with an X celerator detector using Cu Kα radiation at 40 kV and 40 mA. Kα1 radiation is obtained with a highly oriented crystal (Ge111) incident beam monochromator. A 10 mm beam mask, and fixed (¼°) divergence and anti-scatter (⅛°) slits were inserted on the incident beam side. A fixed 0.10 mm receiving slit was inserted on the diffracted beam side. […] The sample was spread on silicon zero background (ZBG) plate for the measurement. The sample was rotated at 4°/min on a PANalytical PW3064 Spinner.
Typically 10 μL aliquots of the sample solutions were diluted to 1 mL with acetonitrile and the assay concentrations were determined from an average of duplicate injections using the following HPLC method. The purity and impurity analyses are done using conventional HPLC.
Stress stability studies were performed to assess the influence of temperature and humidity on stability of Forms A1 and H4A1. A stability-indicating HPLC assay method was developed for quantification of Compound 1. The developed method, described above in section VII, is specific, accurate, precise and robust.

[3] = Gravimetric Vapor Sorption (GVS); settings: for Moisture uptake / XRPD analysis of the after GVS sample: GVS 70-0-90% RH
Experimental: Gravimetric Vapor Sorption experiments have been carried out using the DVS-HT instrument (Surface Measurement Systems, London, UK). This instrument measures the uptake and loss of vapor gravimetrically using a recording ultra-microbalance with a mass resolution of ±0.1 μg. […] The desired temperature is maintained at ±0.1° C. […] (3 cycles). The DVS experiment was started at 70% RH (red line) to ensure that there was no moisture loss. The sample was kept at 70% RH for 2 hours. […] After each cycle the moisture uptake decreases to 21, 15, and 2.3% respectively at 90% RH. Significant polymorphic changes were observed by XRPD analysis of the “after GVS” samples.

[4] = Variable temperature XRPD (VT-XRPD)
Experimental: Variable temperature studies were performed with an Anton Paar TTK450 temperature chamber under computer control through an Anton Paar TCU100 temperature control unit. Typically the measurements were done with a nitrogen flow through the camera. Two measurement schemes were used, restricted and continuous. In the restricted mode, measurements were made, only after the TK450 chamber reached the requested temperature. In the continuous mode, the sample was heated at 10° C./minute and fast scans were measured as the temperature changed. After the requested temperature was reached, the sample was cooled at 35° C./minute and a slow scan measured 25° C. The temperatures chosen were based on DSC results. For the diffractometer set-up a 10 mm beam mask, 0.04 radian Soller slits and fixed (1⁄4°) divergence and anti-scatter (1⁄8°) slits were inserted on the incident beam side. A fixed 0.10 mm receiving slit, 0.04 radian Soller slits and a 0.02 mm Nickel filter were inserted on the diffracted beam side. […] A variable temperature study was performed for Form A1 according to the protocol set out in II above.

[5] = Stability to mechanical stress (grinding, XRPD); settings: after thirty minutes of grinding
Experimental: A Wig-1-Bug (Piketech, USA) was used to grind Forms A1 and H-4A1. Each sample (50 mg) was ground for periods of 5, 10, 15 and 30 minutes. Each grinding was carried out in a 2.82 cm^3 container using 0.9 g stainless steel ball ([…]). The vial was swung through a 6.5° arc at 3200 rpm, causing the ball to strike the end of the vial at over 100 Hz.

C[C@@H]1CCCN1CCCOc1ccc(-c2ccc(=O)[nH]n2)cc1.Cl [Form H4A1, 6-[4-[3-((R)-2-methylpyrrolidine-1-yl)-propoxy]phenyl]2H-pyridazine-3-one hydrochloride]
XRPD after storage ([1]; 25° C./0% RH for 7 days): quantitative conversion of the material to Form A1
Area Purity (%) ([2]; 0 days, hydrochloride): 99.6%
Area Purity (%) ([2]; 7 days, hydrochloride): 99.5%
Area Purity (%) ([2]; 14 days, hydrochloride): 99.5%
Area Purity (%) ([2]; 28 days): 99.5%
Physical and chemical stability on storage ([2]; 28 days at 40° C. and 75% RH): physically and chemically stable
Moisture uptake ([3]; at 90% RH, first cycle): 21%
Moisture uptake ([3]; at 90% RH, second cycle): 15%
Moisture uptake ([3]; at 90% RH, third cycle): 2.3%
XRPD analysis of the after GVS sample ([3]; first cycle): mixture of Forms A1 and H4A1
XRPD analysis of the after GVS sample ([3]; second cycle): mixture of Forms A1 and H4A1
XRPD analysis of the after GVS sample ([3]; third cycle): Complete conversion of Form H4A1 to Form A1

C[C@@H]1CCCN1CCCOc1ccc(-c2ccc(=O)[nH]n2)cc1.Cl [Form B1, 6-[4-[3-((R)-2-methylpyrrolidine-1-yl)-propoxy]phenyl]2H-pyridazine-3-one hydrochloride]
Temperature at which polymorphic transformation to Form A1 was observed (VT-XRPD) ([4]; Form B1 made by dehydrating Form H4A1 at 25-100° C., 0% RH): 220 °C

C[C@@H]1CCCN1CCCOc1ccc(-c2ccc(=O)[nH]n2)cc1.Cl [Form A1, 6-[4-[3-((R)-2-methylpyrrolidine-1-yl)-propoxy]phenyl]2H-pyridazine-3-one hydrochloride]
Change in crystal form on grinding (XRPD) [5]: did not generate a change in crystal form
Crystallinity by XRPD after grinding [5]: crystallinity had been significantly reduced
Solid-solid transformation on heating (VT-XRPD) ([4]; temperature range of 20° C. to 250° C.): No solid-solid transformation was observed
XRPD after exposure to humidity ([1]; 100% RH at 25° C. over 1 day): quantitative conversion of the material to Form H4A1
Changes on storage as assessed by XRPD ([2]; 4 weeks of storage at 40 degrees C. at 75% relative humidity): No significant changes
Chemical degradation ([2]; 40° C./75% RH after 4 weeks): chemical degradation was not observed
Water uptake from the environment in the solid state ([2]; 40° C./75% RH after 4 weeks): not observed to take up water
Area Purity (%) ([2]; 0 days, hydrochloride): 99.5%
Area Purity (%) ([2]; 7 days, hydrochloride): 99.6%
Area Purity (%) ([2]; 14 days, hydrochloride): 99.7%
Area Purity (%) ([2]; 28 days): 99.5%
Hydrate formation under GVS conditions ([3]; GVS, 0-90% RH cycles): did not appear to form a hydrate
Hygroscopicity (adsorption and desorption curves) ([3]; GVS, 0-90% RH cycles): not hygroscopic
Amount of moisture adsorbed ([3]; GVS, at 90% RH): approximately 1.8%
Amount of moisture adsorbed ([3]; GVS, relative humidity not printed (below 90% RH)): less than 0.8%
XRPD before and after GVS ([3]; after GVS, 0-90% RH cycles): no significant changes after GVS
